The subject of assay [1] is Xanthomonas campestris KB88. The assay can be described thus: Paper disc assay, Xanthomonas campestris. Format: cell-based. To be noted: X. The procedure: (§1) (2) Antibacterial activities against other bacteria were determined with Micrococcus luteus ATCC9341 (1), Bacillus subtilis […] (s), Escherichia coli NIHJ (c), Xanthomonas campestris KB88 (X), Mucor racemosus IFO 4581 (Mu) and Candida albicans ATCC 64548 (Ca).
(§2) Bacillus subtilis ATCC6633 was incubated in Davis synthetic medium and then the seed broth was combined with the medium in the ratio of 1:99 to obtain a test plate. Micrococcus luteus ATCC9341, Escherichia coli NIHJ and Xanthomonas campestris KB88 were respectively incubated in Nutrient agar medium and inoculated at 0.2%, 0.5% and 1.0%. Mucor racemosus IFO 4581 and Candida albicans ATCC 64548 were respectively incubated in GY agar medium and then inoculated at 0.3% and 0.2%.
(§3) A paper disc (ADVANTEC, Φ:6 mm) was impregnated with a solution of test compound and dried under reduced pressure. The paper disc was put on the test plate and it was incubated for 24 hours at 37° C. After incubation, the inhibition zone diameter and clarity (A to E) were determined.

Assay [2] relates to Bacillus subtilis ATCC6633. The assay can be described thus: Paper disc assay, Bacillus subtilis. The format is cell-based. The settings on record: S. The procedure: as §1, §2, §3
Another assay concerns Escherichia coli NIHJ. The assay is described as follows: Paper disc assay, Escherichia coli. Format: cell-based. The settings on record: c; 10 mg/6 mm disc. The procedure:
as §1, §2, §3

The test system of assay [3] is Micrococcus luteus ATCC9341. The assay can be described thus: Paper disc assay, Micrococcus luteus. Format: cell-based. To be noted: column 1. The procedure:
as §1, §2, §3

The subject of a further assay is Escherichia coli. The assay can be described thus: MIC50 mastitis pathogens, broth dilution. Format: cell-based. The settings on record: E. coli, 7 to 12 isolates, 24 hours. From the text: (§4) The activity of several compounds against bacterial mastitis pathogens has been tested under in-vitro conditions according to a recognized procedure (CLSI, document […]-A3, 2008). In this test 7 to 12 representative bacteria belonging to 7 bacterial species that typically cause mastitis in dairy cattle, i.e. Staphylococcus aureus, coagulase negative staphylococci (CNS), Streptococcus uberis, Streptococus dysgalactiae, Streptococcus agalactiae, Arcanobacterium pyogenes and Escherichia coli, were exposed to two-fold dilutions of the test compounds. After 24 hours of incubation the concentration that inhibited the growth of this bacteria was determined. It could be shown that all these bacterial mastitis pathogens were highly susceptible to the test compounds.

The subject of another assay is Streptococcus uberis. The assay is described as follows: MIC50 mastitis pathogens, broth dilution. The format is cell-based. The settings on record: Str uberis, 7 to 12 isolates, 24 hours.
Excerpt: as §4

Another assay concerns Streptococcus agalactiae. The assay is described as follows: MIC50 mastitis pathogens, broth dilution. Format: cell-based. The settings on record: Str agalactiae, 7 to 12 isolates, 24 hours.
Excerpt: as §4

Assay [4] concerns coagulase negative staphylococci (CNS). The assay can be described thus: MIC50 mastitis pathogens, broth dilution. Format: cell-based. To be noted: 7 to 12 isolates, 24 hours.
Excerpt: as §4

The subject of another assay is Arcanobacterium pyogenes. The assay is described as follows: MIC50 mastitis pathogens, broth dilution. The format is cell-based. To be noted: Trueperella pyogenes, A. pyogenes, 7 to 12 isolates, 24 hours.
Excerpt: as §4

A further assay deals with Staphylococcus aureus. The assay can be described thus: MIC50 mastitis pathogens, broth dilution. The format is cell-based. To be noted: S. aureus, 7 to 12 isolates, 24 hours.
Excerpt: as §4

The subject of assay [5] is Streptococus dysgalactiae. The assay is described as follows: MIC50 mastitis pathogens, broth dilution. Format: cell-based. The settings on record: Str dysgalactiae, 7 to 12 isolates, 24 hours.
Excerpt: as §4

Assay [6] has as its system Mannheimia haemolytica, 3 isolates. The assay can be described thus: MIC against Mannheimia haemolytica isolates. Format: cell-based. To be noted: Mannheimia haemolytica, 3ISOLATES, 3 Mannheimia haemolytica isolates; broth dilution method; read-out: Range of minimum inhibitory concentrations (MIC). The protocol: (§5) Minimal inhibitory concentrations (MICs) were determined against the most prevalent pathogens in cattle (Mannheimia Haemolytica, 3 isolates) and swine (A. pleuropneumoniae, 6 isolates). In addition the activity of several compounds was tested against two bacterial species, i.e. Mannheimia haemolytica and Actinobacillus pleuropneumoniae, which are considered as the most important bacterial respiratory pathogens in cattle and swine, respectively.
Background: In broth dilution the organism is exposed to a series of concentrations in liquid medium.

Assay [7] has as its system S. aureus bacteria (strain Newbould). The assay can be described thus: Mouse mastitis model of infection. Format: in vivo, mice. To be noted: for mean S. aureus count in glands: 14 hours after application, untreated 8.64 log 10. From the text:
The clinical efficacy of compound YT709 against mastitis caused by S. aureus was shown in lactating mice according to a recognized published procedure (E. Brouillette, G. Grondin, C. Lefebvre, B. G. Talbot, F. Malouin, Mouse mastitis model of infection for antimicrobial compound efficacy studies against intracellular and extracellular forms of Staphylococcus aureus, Veterinary Microbiology, 101, (2004), 253-262). Into the glands of lactating mice S. aureus bacteria (strain Newbould) were instilled and allowed to multiply. Bacterium S. aureus Newbould is an isolate which was isolated from a clinical case of bovine mastitis and which also causes typical mastitis infection in dairy cattle upon experimental, intramammary infection. Four hours after the intramammary infection of lactating mice with S. aureus Newbould, compound YT709 was instilled into the infected glands. Different intramammary dosages of YT709 were tested and their efficacy compared to an infected, untreated control group. Fourteen hours after intramammary application of YT709, the glands of the treated and untreated mice were removed, homogenized and the number of S. aureus bacteria counted in 10-fold dilutions of the homogenized glands. The mean S. aureus count of 8 untreated glands was 10^8.64 (8.64 log 10) bacteria. The mean S. aureus count in 6 glands that had been treated with 200 microgram YT709 was 10^5.10 bacteria (5.10 log 10). […] The mean S. aureus count in the 5 glands that had been treated with 400 microgram YT709 was 10^2.34 bacteria (2.34 log 10).

Assay [8] has as its system Actinobacillus pleuropneumoniae, 6 isolates. The assay can be described thus: MIC against Actinobacillus pleuropneumoniae isolates. Format: cell-based. The settings on record: 6ISOLATES; 6 Actinobacillus pleuropneumoniae isolates; broth dilution method; read-out: Range of minimum inhibitory concentrations (MIC). The procedure: as §5

Converted amounts (≈) assume the structure as drawn.

`CC[C@H]1OC(=O)C[C@@H](O)[C@H](C)[C@@H](O[C@@H]2O[C@H](C)[C@@H](O)[C@H](N(C)C)[C@H]2O)[C@@H](CCn2cc(-c3ccsc3)nn2)C[C@@H](C)C(=O)/C=C/C(C)=C/[C@@H]1CO[C@@H]1O[C@H](C)[C@@H](O)[C@@H](OC)[C@H]1OC` [YT14, 20-(4-(thiophene-3-yl)-1H-1,2,3-triazol-1-yl)-20-deoxodesmycosin]: the Inhibition zone in assay [1] (0.1 mg/6 mm disc) is recorded as 7 mm; in [1] (1 mg/6 mm disc) it was 16 mm; in assay [1] (10 mg/6 mm disc), 22 mm; in assay [2] (0.1 mg/6 mm disc) it was 8 mm; in [2] (1 mg/6 mm disc), 11 mm; in assay [2] (10 mg/6 mm disc), 15 mm. Further, the Inhibition zone came out at 7 mm in the assay on Escherichia coli NIHJ, 13.5 mm in assay [3] (0.1 mg/6 mm disc), 20.5 mm in assay [3] (1 mg/6 mm disc) and 26.5 mm in [3] (10 mg/6 mm disc).

The term MIC50 denotes the lowest concentration that inhibits either 50% of growth or 50% of the strains tested, depending on the study. A high value points to lower susceptibility. Turning to `CC[C@H]1OC(=O)C[C@@H](O)[C@H](C)[C@@H](O[C@@H]2OC(C)[C@@H](O)C(N(C)C)C2O)[C@@H](CCN(Cc2ccccc2)Cc2cn(-c3cnc4ccccc4c3)nn2)C[C@@H](C)C(=O)/C=C/C(C)=C/[C@@H]1CO` (stereo partly shown) [YT709], the MIC50 in the assay on Escherichia coli is 16 µg/mL (≈ 17.8 µM); in the assay on Streptococcus uberis, 0.06 µg/mL (≈ 0.0669 µM); against Streptococcus agalactiae, 0.06 µg/mL (≈ 0.0669 µM); in [4] it was not above 0.03 µg/mL; against Arcanobacterium pyogenes, 0.008 µg/mL (≈ 0.00892 µM); against Staphylococcus aureus, not above 0.03 µg/mL. The molecule also gave an MIC50 in assay [5] of 0.06 µg/mL (≈ 0.0669 µM). For the same molecule, the MIC in assay [6] and in [8] was 2 to 4 µg/mL (≈ 2.23 to 4.46 µM) each time. The “reduction of number of bacteria vs untreated glands” value in [7] (200 microgram intramammary) is on record as “about 3500 fold”; in [7] (400 microgram intramammary) it was “about two million”. Further, the “mean S. aureus count in glands” value in assay [7] (200 microgram intramammary, 6 glands) is 5.10 log 10; in [7] (400 microgram intramammary, 5 glands) it was 2.34 log 10. Besides, the “glands in which the infection was cleared” value in assay [7] (400 microgram intramammary) is 2 out of 5.

As to `CC[C@H]1OC(=O)C[C@@H](O)[C@H](C)[C@@H](O[C@@H]2OC(C)[C@@H](O)C(N(C)C)C2O)[C@@H](CCNCCn2cc(-c3ccc(-c4ccccc4)cc3)nn2)C[C@@H](C)C(=O)/C=C/C(C)=C/[C@@H]1CO` (stereo partly shown) [YT721], the MIC50 was found to be 8 µg/mL (≈ 9.46 µM) in the assay with Escherichia coli; 0.12 µg/mL (≈ 0.142 µM) against Streptococcus uberis; 0.125 µg/mL (≈ 0.148 µM) in the assay on Streptococcus agalactiae; 0.5 µg/mL (≈ 0.591 µM) in assay [4]; 0.06 µg/mL (≈ 0.0709 µM) in the assay on Arcanobacterium pyogenes; 0.5 µg/mL (≈ 0.591 µM) in the assay on Staphylococcus aureus. In addition, the MIC50 in assay [5] was determined as 0.25 µg/mL (≈ 0.295 µM). For the same molecule, the MIC in assay [6] was 1 to 4 µg/mL (≈ 1.18 to 4.73 µM); in assay [8], 8 µg/mL (≈ 9.46 µM).

Take `CC[C@H]1OC(=O)C[C@@H](O)[C@H](C)[C@@H](O[C@@H]2OC(C)[C@@H](O)C(N(C)C)C2O)[C@@H](CCNCCn2cc(-c3cnc4ccccc4c3)nn2)C[C@@H](C)C(=O)/C=C/C(C)=C/[C@@H]1CO` (stereo partly shown) [YT732]: the MIC50 in the assay with Escherichia coli is 8 µg/mL (≈ 9.74 µM); in the assay with Streptococcus uberis it was 0.03 µg/mL (≈ 0.0365 µM); in the assay with Streptococcus agalactiae it was 0.03 µg/mL (≈ 0.0365 µM); in [4], 0.25 µg/mL (≈ 0.304 µM); against Arcanobacterium pyogenes, 0.008 µg/mL (≈ 0.00974 µM); against Staphylococcus aureus, 0.5 µg/mL (≈ 0.609 µM). Also, the MIC50 in assay [5] worked out at 0.12 µg/mL (≈ 0.146 µM). The results for the MIC in [6] and in [8] were 1 to 4 µg/mL (≈ 1.22 to 4.87 µM) and 2 to 4 µg/mL (≈ 2.44 to 4.87 µM), respectively.

Regarding `CC[C@H]1OC(=O)C[C@@H](O)[C@H](C)[C@@H](O[C@@H]2OC(C)[C@@H](O)C(N(C)C)C2O)[C@@H](CCNCc2cn(-c3cnc4ccccc4c3)nn2)C[C@@H](C)C(=O)/C=C/C(C)=C/[C@@H]1CO` (stereo partly shown) [YT739], the MIC50 with Escherichia coli came to 8 µg/mL (≈ 9.91 µM); in the assay with Streptococcus uberis it was 0.03 µg/mL (≈ 0.0372 µM); with Streptococcus agalactiae, 0.03 µg/mL (≈ 0.0372 µM); in assay [4], 0.25 µg/mL (≈ 0.31 µM); with Arcanobacterium pyogenes, 0.008 µg/mL (≈ 0.00991 µM); in the assay with Staphylococcus aureus, 0.5 µg/mL (≈ 0.62 µM). In [5], this molecule gave an MIC50 of 0.12 µg/mL (≈ 0.149 µM).

Consider `CC[C@H]1OC(=O)C[C@@H](O)[C@H](C)[C@@H](O[C@@H]2OC(C)[C@@H](O)C(N(C)C)C2O)[C@@H](CCN(Cc2ccccc2)Cc2cn(-c3ccc4ccccc4c3)nn2)C[C@@H](C)C(=O)/C=C/C(C)=C/[C@@H]1CO` (stereo partly shown) [YT762], for which the MIC50 in the assay with Escherichia coli turned out to be 8 µg/mL (≈ 8.93 µM); against Streptococcus uberis it was 0.03 µg/mL (≈ 0.0335 µM); against Streptococcus agalactiae, 0.03 µg/mL (≈ 0.0335 µM); in [4], 0.25 µg/mL (≈ 0.279 µM); with Arcanobacterium pyogenes, 0.015 µg/mL (≈ 0.0167 µM); against Staphylococcus aureus it was 1 µg/mL (≈ 1.12 µM). The MIC50 in [5] stood at 0.12 µg/mL (≈ 0.134 µM).

As to `CC[C@H]1OC(=O)C[C@@H](O)[C@H](C)[C@@H](O[C@@H]2OC(C)[C@@H](O)C(N(C)C)C2O)[C@@H](CCN(C)Cc2cn(-c3cnc4ccccc4c3)nn2)C[C@@H](C)C(=O)/C=C/C(C)=C/[C@@H]1CN1CCCCC1` (stereo partly shown) [YT769], the MIC50 is 4 µg/mL (≈ 4.5 µM) against Escherichia coli; not above 0.015 µg/mL against Streptococcus uberis; not above 0.015 µg/mL against Streptococcus agalactiae; 0.25 µg/mL (≈ 0.281 µM) in [4]; not above 0.015 µg/mL with Arcanobacterium pyogenes; 0.25 µg/mL (≈ 0.281 µM) against Staphylococcus aureus. The MIC50 in [5] was not above 0.015 µg/mL.

On to `CC[C@H]1OC(=O)C[C@@H](O)[C@H](C)[C@@H](O[C@@H]2OC(C)[C@@H](O)C(N(C)C)C2O)[C@@H](CCN(C)Cc2cn(-c3cnc4ccccc4c3)nn2)C[C@@H](C)C(=O)/C=C/C(C)=C/[C@@H]1CN(C)C` (stereo partly shown) [YT770], for which the MIC50 is 4 µg/mL (≈ 4.72 µM) against Escherichia coli; 0.03 µg/mL (≈ 0.0354 µM) against Streptococcus uberis; not above 0.015 µg/mL in the assay with Streptococcus agalactiae; 0.25 µg/mL (≈ 0.295 µM) in assay [4]; not above 0.015 µg/mL with Arcanobacterium pyogenes; 0.25 µg/mL (≈ 0.295 µM) against Staphylococcus aureus. The molecule further displayed an MIC50 in [5] of 0.03 µg/mL (≈ 0.0354 µM).

(Values after US9771389B2, “Tylosin derivatives and method for preparation thereof” (BAYER ANIMAL HEALTH GMBH, priority 2013, dated 2017).)
